# Test results reported in patent US20100173923A1, “4 (PYRROLOPYRIDINYL)PYRIMIDINYL-2-AMINE DERIVATIVES” (priority 2006, published 2010).
# Tested on: tumour cells (for example commercially available colon carcinoma cell lines)
# Assay: Inhibition of the proliferation/vitality of tumour cells in vitro (Crystal Violet staining)
# Type: cell-based
# Conditions: 48 hours incubation with test substance, serum-containing medium, Crystal Violet absorbance, value given as range
# Method: In the present experiment description, the inhibition of tumour cell proliferation/tumour cell vitality by active ingredients is described.
# The cells are sown in a suitable cell density in microtitre plates (96-well format). On the next day, the test substances are added in the form of a concentration series. After two further days of cultivation in serum-containing medium, the cell density is determined photometrically by staining the cells with Crystal Violet.
# For example commercially available colon carcinoma cell lines.
# The cells are cultivated in medium. At intervals of 3-4 days, the cells are detached from the culture dishes with the aid of trypsin solution and sown in suitable dilution in fresh medium. The cells are cultivated at 37° Celsius and 10% CO2.
# • A cell culture bottle is washed with 1×PBS • Addition of 3 ml of 1× trypsin solution. Incubation at 37° C. for 5 min in an incubator. • Termination by addition of 7 ml of medium • Centrifugation of the cells (for example for 5 minutes at 150×g (1200 rpm)) • Remove medium by tilting and resuspend cells in fresh medium • Cell counting, for example using Trypan Blue solution (1:2 dilution) in counting chamber • Dilute cell suspension to 25,000 cells/ml and plate out 100 μl/well (2500 cells/well) • Incubation of the microtitre plate at 37° C. in 10% CO2 overnight
# • The test substances are dissolved, for example, in DMSO and subsequently employed in corresponding concentration (if desired in a dilution series) in the cell culture medium. The dilution steps can be adapted depending on the efficiency of the active ingredients and the desired spread of the concentrations. Cell culture medium is added to the test substances in corresponding concentrations. Within the dilution series, the final concentration of DMSO in the cell culture medium can be constant (for example at 0.5%). The addition of the test substances to the cells can take place one day after sowing of the cells. To this end, the medium is removed from the cells, and the test substance dilutions are added to the cells (in the desired concentrations in the cell culture medium). […]
# • The medium is removed from the cells, and the cells are washed with PBS. […] An absorption measurement is carried out at corresponding wavelength, for example 550 nm, in a microtitre plate reader (for example TECAN Genios No F129004). […]
# The absorbance value of the medium control (no cells and test substances used) is subtracted from all other absorbance values. The controls (cells without test substance) with the solvent DMSO are set equal to 100 percent, and all other absorbance values are set in relation thereto (for example in % of control):
# IC50 values (50% inhibition) are determined with the aid of statistics programs, such as, for example, RS1.
row,IC50,SMILES
1,0.5 to 5 µM,CNc1nccc(-c2c[nH]c3ncccc23)n1 [Compound A3]
2,0.05 to 0.5 µM,"c1ccc(Nc2nccc(-c3c[nH]c4ncccc34)n2)cc1 [Compound A1, 3-(2-phenylaminopyrimidin-4-yl)-1H-pyrrolo[2,3-b]pyridine]"
3,5 to 50 µM,CNc1nccc(-c2cn(CCOC)c3ncccc23)n1 [Compound A4]
4,5 to 50 µM,"COCCn1cc(-c2ccnc(Nc3ccccc3)n2)c2cccnc21 [Compound A2, 1-(2-methoxyethyl)-3-(2-phenylaminopyrimidin-4-yl)-1H-pyrrolo[2,3-b]pyridine]"
